According to ChEMBL document CHEMBL3352309, “Three types of cytotoxic natural caged-scaffolds: pure enantiomers or partial racemates” (J Nat Prod, 2014):
Values after ≈ are worked out from the molar mass of the structure shown.

The compounds below were run on MCF7 (assay: Cytotoxicity against human MCF7 cells after 72 hrs by sulforhodamine B assay). Conditions: MCF7, 72 h.
Format: functional, cell-based

Row | SMILES | IC50 [µg/mL]
1 | CO[C@]12C=C3C(=O)c4c(O)cccc4O[C@@]34C[C@@H]1C(C)(C)O[C@]2(CC=C(C)C)C4=O (racemic) | > 5
2 | COC(=O)[C@@]1(CC=C(C)C)OC(C)(C)[C@@H]2CC(=O)C=C3C(=O)c4c(O)cccc4O[C@]321 (racemic) | > 5
3 | CO[C@]12C=C3C(=O)c4c(O)cccc4O[C@@]34[C@@H](C1)C(C)(C)O[C@]4(CC=C(C)C)C2=O (racemic) | 0.36 (≈ 0.877 µM)
4 | CC[C@@]1(O)C(=O)OCc2c1cc1n(c2=O)Cc2cc3ccccc3nc2-1 [CAMPTOTHECIN] | < 0.024
